The record followed here is PubChem BioAssay (NCI).

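1) Cells in 96-well plates. 2) Compound, 48 h, 5 concentrations. 3) Linear interpolation between surrounding doses. 4) Unreached endpoint = highest concentration. GI50 marks 50% less growth. At the TGI there is no net growth.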

Some test systems named below: OVCAR-8 ovarian; EKVX NSCLC; UACC-257 melanoma; ACHN renal; UACC-62 melanoma; DU-145 prostate; NCI-H23 lung; TK-10 renal; SK-MEL-2 melanoma; COLO 205 colon.
Holding throughout (assay): NCI tumour cell line growth inhibition, 48 h

Consider `COc1ccc(/C=C/C(=O)c2cc(OC)c(OC)c(OC)c2)cc1OCC(=O)Nc1nc2ccc(OC(F)(F)F)cc2s1`, for which the GI50 with OVCAR-8 ovarian is 1.54 µM; with EKVX NSCLC, 5.11 µM; in the assay on UACC-257 melanoma it was 8.08 µM; in the assay with ACHN renal, 1.62 µM; in the assay with UACC-62 melanoma it was 9.52 µM; with DU-145 prostate, 1.56 µM. The GI50 with NCI-H23 lung is 2.15 µM; in the assay with TK-10 renal, 2.08 µM; in the assay on SK-MEL-2 melanoma, 4.97 µM; with COLO 205 colon, 6.37 µM. The TGI was 3.89 µM with OVCAR-8 ovarian; greater than 100 µM in the assay with EKVX NSCLC; greater than 100 µM in the assay with UACC-257 melanoma; 3.85 µM in the assay with ACHN renal; 42.1 µM with UACC-62 melanoma; 4.55 µM with DU-145 prostate. For the same compound, the TGI in the assay on NCI-H23 lung was found to be 6.2 µM; in the assay with TK-10 renal, 4.62 µM; with SK-MEL-2 melanoma it was 27.1 µM; with COLO 205 colon, 39.8 µM.
